Results reported in patent publication US6468980B1, “Methods and compositions for potentiating cancer chemotherapeutic agents” (Oxycal Laboratories, Inc., priority 2000, dated 2002).

Tested on: SK-Hep-1, a liver adenocarcinoma (hepatoma) cells
Assay: BrdU cell proliferation ELISA, adriamycin plus ascorbate adjuvant, hepatoma cells
Assay type: cell-based, human
Settings: for suppression of hepatoma proliferation, ADR plus adjuvant compared with ADR alone: adjuvant 0.5 mM AA equivalents, one application of ADR (0.003-0.3 micromolar), two applications of adjuvant, FIG. 1
Source text: Calcium ascorbate (CA), calcium threonate (CT), 4-hydroxy-5-methyl-3(2H)-furanone (FR) and Ester-C (EC) are obtained from Inter-Cal Corporation, Prescott, Ariz., USA. Tissue culture grade Ascorbic acid (AA) is from Sigma Chemical Company, St. Louis, Mo., USA. The composition of calcium ascorbate (calcium di-(L-ascorbate) dihydrate) is made by sequentially dissolving individual components in sterile water to obtain master-stock solutions of equal strength (1% w/v). Aqueous solution of calcium ascorbate plus calcium threonate plus 4-hydroxy-5-methyl-3(2H)-furanone (CA/CT/FR) is prepared at ratio of 85/7.5/7.5. For comparative analysis, stock solutions containing identical ascorbic acid (AA) equivalents are used. All master stocks are stored at room temperature during the course of these procedures. From these, 10× strength working stocks are prepared by serial dilution on the day of use and are applied to cells in microtiter plates as described below.
Adriamycin (doxorubicin) is obtained from Sigma Chemical Company (St. Louis, Mo.). Stock solutions are made by dissolving adriamycin (ADR) in sterile water and DTIC in water or dilute acetic acid solution (0.01N). Stocks are stored frozen at −10 C and thawed prior to use. Serial dilutions are made in sterile water to obtain 10× strength solutions and […] of this is applied to cells at the time of treatment.
Target human tumor-derived or normal lines consist of SK-Hep-1, a liver adenocarcinoma ([…]) and Malme-3M, a malignant melanoma. All seed cultures are obtained from ATCC, Mannassas, Va., USA and are propagated/maintained in serum-containing growth medium in a humidified incubator of 5% CO2/95% air. SH-Hep-1 cells are grown in Eagle's minimum essential medium (EMEM) in Earle's salts plus non-essential amino acids supplemented with 10% FBS plus antibiotics and Malme-3M cells are cultured in McCoy's medium supplemented with 15% fetal bovine serum (FBS) plus antibiotics.
For treatment, exponentially growing cells are seeded at a density of 1×10^4 cells per well of 96-well microtiter plate in 0.1-0.2 ml of growth medium. After overnight cell attachment at 37 C, duplicate wells are exposed to various treatments by direct application of one-tenth volume of 10× strength solution. For treatments involving chemotherapeutic agent, one-tenth volume of serial dilutions of adriamycin (0.0006-3.0 micromolar) are applied to wells followed by application of ascorbate-containing composition (adjuvant) or sterile water (control). The adjuvant treatment is repeated every other day or on the third day (as applicable) without change of growth medium. Untreated controls receive an equivalent amount of sterile water. After 2-3 treatments with adjuvant, cells are labeled with BudR as described below. (In some experiments, wells are refed an equal volume of growth medium prior to additional of BudR. This gives a higher amount of BrdU incorporation into DNA relative to no refluiding).
For DNA labeling, the following procedure are adapted and modified from the Cell Proliferation ELISA, BudR (Colorimetric) assay of Roche Diagnostics, Indianapolis, IN, USA: Each treated well is exposed to one-tenth volume of 10× BrdU-containing medium and reincubated and 37 C overnight (15-20 hrs.). One set of control wells is exposed to medium only (no BudR) to obtain an absorbance-control (substrate only) blank for the assay. After the labeling period, the culture medium is removed and the cells are fixed and DNA denatured in one step by adding FixDenat (30 min at RT). Then, FixDenat is removed, the anti-BrdU-peroxidase reagent is added and incubation continues for 90 min at RT. After removal of the latter, the plate is washed 3 times, followed by addition of substrate solution. The plate is kept at RT until color development became sufficient for photometric detection (5-10 min). […]

O=C1O[C@H]([C@@H](O)CO)C(O)=C1O [AA, Ascorbic acid, reference compound]
suppression of hepatoma proliferation, ADR plus adjuvant compared with ADR alone: greater suppression of hepatoma proliferation than ADR alone
suppression of hepatoma proliferation, ADR plus adjuvant compared with ADR alone (listed as Ascorbic Acid (AA)): greater suppression of hepatoma proliferation than doxorubicin alone

calcium di-(L-ascorbate) dihydrate
suppression of hepatoma proliferation, ADR plus adjuvant compared with ADR alone (dihydrate): greater suppression of hepatoma proliferation than ADR alone
suppression of hepatoma proliferation, ADR plus adjuvant compared with ADR alone (listed as Calcium Ascorbate (CA), dihydrate): greater suppression of hepatoma proliferation than doxorubicin alone
suppression of hepatoma proliferation, ADR plus adjuvant compared with ADR alone (listed as Calcium ascorbate, dihydrate): more effective than ascorbic acid
effect of adjuvant on anti-proliferation activity of low doses of ADR in hepatoma cells (adjuvant at 0.033%, FIG. 4): consistently improve the anti-proliferation activity of low doses of ADR
